From ChEMBL document CHEMBL5584316, “Arcopilins: A New Family of Staphylococcus aureus Biofilm Disruptors from the Soil Fungus Arcopilus navicularis” (J Med Chem, 2024)
Active and inactive are the calls of the source. The rule behind the calls is not given here.

Experiments:
Escherichia coli = assay: Antimicrobial activity against Escherichia coli DSM 1116 assessed as inhibition of microbial growth incubated overnight by serial dilution method; type: functional, organism-based
Pseudomonas aeruginosa = assay: Antimicrobial activity against Pseudomonas aeruginosa PA14 assessed as inhibition of microbial growth incubated overnight by serial dilution method; type: functional, organism-based
[1] = tested on: Chromobacterium violaceum; assay: Antimicrobial activity against Chromobacterium violaceum DSM 30191 assessed as inhibition of microbial growth incubated overnight by serial dilution method; type: functional, organism-based
[2] = tested on: Mycolicibacterium smegmatis; assay: Antimicrobial activity against Mycobacterium smegmatis ATCC 700084 assessed as inhibition of microbial growth incubated overnight by serial dilution method; type: functional
Wickerhamomyces anomalus = assay: Antimicrobial activity against Wickerhamomyces anomalus DSM 6766 assessed as inhibition of microbial growth incubated overnight by serial dilution method; type: functional, organism-based
Rhodotorula glutinis = assay: Antimicrobial activity against Rhodotorula glutinis DSM 10134 assessed as inhibition of microbial growth incubated overnight by serial dilution method; type: functional, organism-based
Staphylococcus aureus [3] = assay: Antibiofilm activity in Staphylococcus aureus DSM1104 assessed as disruption of preformed biofilm at […] to […] ug/ml incubated for 18 hrs by crystal violet staining based assay relative to control; type: functional; conditions: dose lower […] microg/ml, dose upper 250 µg/ml
Staphylococcus aureus [4] = assay: Antibiofilm activity in Staphylococcus aureus DSM1104 assessed as disruption of preformed biofilm at 3.9 ug/ml incubated for 18 hrs by crystal violet staining based assay relative to control; type: functional; conditions: dose 3.9 µg/ml
Staphylococcus aureus [5] = assay: Antimicrobial activity against Staphylococcus aureus DSM 346 assessed as inhibition of microbial growth at 3.9 to 7.8 ug/ml measured for 10 hrs; type: functional, organism-based; conditions: DSM346, dose 3.9-7.8 µg/ml
Staphylococcus aureus [6] = assay: Antimicrobial activity against Staphylococcus aureus DSM 1104 assessed as disruption of preformed biofilm by measuring reduction in metabolic activity at 3.9 ug/ml incubated for 24 hrs by XTT assay; type: functional, organism-based; conditions: dose 3.9 µg/ml
Staphylococcus aureus [7] = assay: Antimicrobial activity against Staphylococcus aureus DSM 1104 assessed as disruption of preformed biofilm by measuring reduction in metabolic activity at 2 to 7.8 ug/ml measured every 90 mins for 10 hrs by absorbance based analysis; type: functional, organism-based; conditions: dose 2-7.8 µg/ml
Staphylococcus aureus [8] = assay: Synergistic antimicrobial activity against Staphylococcus aureus DSM 1104 planktonic cells assessed as gentamicin MIC at 3.9 ug/ml by checkerboard assay; type: functional; conditions: dose 3.9 µg/ml
Staphylococcus aureus [9] = assay: Synergistic antimicrobial activity against Staphylococcus aureus DSM 1104 planktonic cells assessed as fractional inhibitory concentration index at 3.9 ug/ml in presence of gentamicin by checkerboard assay; type: functional; conditions: dose 3.9 µg/ml
Staphylococcus aureus [10] = assay: Synergistic antimicrobial activity against Staphylococcus aureus DSM 1104 planktonic cells assessed as vancomycin MIC at 3.9 ug/ml by checkerboard assay; type: functional; conditions: dose 3.9 µg/ml
Staphylococcus aureus [11] = assay: Synergistic antimicrobial activity against Staphylococcus aureus DSM 1104 planktonic cells assessed as fractional inhibitory concentration index at 3.9 ug/ml in presence of vancomycin by checkerboard assay; type: functional; conditions: dose 3.9 µg/ml
Staphylococcus aureus [12] = assay: Synergistic antimicrobial activity against Staphylococcus aureus DSM 1104 planktonic cells assessed as fold increase in gentamicin potency at 3.9 ug/ml by checkerboard assay relative to control; type: functional; conditions: dose 3.9 µg/ml
Staphylococcus aureus [13] = assay: Synergistic antimicrobial activity against Staphylococcus aureus DSM 1104 planktonic cells assessed as inhibition of preformed biofilm by measuring fold increase in gentamicin potency at 3.9 to 7.8 ug/ml measured at 24 to 48 hrs by CFU counting assay relative to control; type: functional; conditions: dose 3.9-7.8 µg/ml; time 24-48 hrs
Staphylococcus aureus [14] = assay: Synergistic antimicrobial activity against Staphylococcus aureus DSM 1104 planktonic cells assessed as inhibition of preformed biofilm by measuring fold increase in vancomycin potency at 3.9 to 7.8 ug/ml measured at 24 to 48 hrs by CFU counting assay relative to control; type: functional; conditions: dose 3.9-7.8 µg/ml; time 24-48 hrs
[15] = tested on: Schizosaccharomyces pombe; assay: Antimicrobial activity against Schizosaccharomyces pombe DSM 70572 assessed as inhibition of microbial growth incubated overnight by serial dilution method; type: functional
Candida albicans = assay: Antimicrobial activity against Candida albicans DSM 1665 assessed as inhibition of microbial growth incubated overnight by serial dilution method; type: functional
Mucor hiemalis = assay: Antimicrobial activity against Mucor hiemalis DSM 2656 assessed as inhibition of microbial growth incubated overnight by serial dilution method; type: functional
Staphylococcus aureus [16] = assay: Antibiofilm activity in Staphylococcus aureus DSM1104 assessed as disruption of preformed biofilm at 3.9 to 250 ug/ml incubated for 18 hrs by crystal violet staining based assay; type: functional, organism-based; conditions: dose 3.9-250 µg/ml
Bacillus subtilis = assay: Antimicrobial activity against Bacillus subtilis DSM 10 assessed as inhibition of microbial growth incubated overnight by serial dilution method; type: functional
Staphylococcus aureus [17] = assay: Antimicrobial activity against Staphylococcus aureus DSM 346 assessed as inhibition of microbial growth incubated overnight by serial dilution method; type: functional
KB 3-1 = assay: Cytotoxicity against human KB-3-1 cells assessed as inhibition of cell growth incubated for 5 days by MTT assay; type: toxicity, cell-based; conditions: kb 3-1, 120 h, time 5 day
L929 = assay: Cytotoxicity against mouse L929 cells assessed as inhibition of cell growth incubated for 5 days by MTT assay; type: toxicity, cell-based; conditions: l929, 120 h, time 5 day
Staphylococcus aureus [18] = assay: Antibiofilm activity in Staphylococcus aureus DSM1104 assessed as disruption of preformed biofilm at 7.8 to 250 ug/ml incubated for 18 hrs by crystal violet staining based assay relative to control; type: functional; conditions: dose 7.8-250 µg/ml, at 7.8 to 250 µg/mL
Staphylococcus aureus [19] = assay: Antibiofilm activity in Staphylococcus aureus DSM1104 assessed as disruption of preformed biofilm at 31.3 ug/ml incubated for 18 hrs by crystal violet staining based assay; type: functional, organism-based; conditions: dose 31.3 µg/ml
Staphylococcus aureus [20] = assay: Antibiofilm activity in Staphylococcus aureus DSM1104 assessed as disruption of preformed biofilm; type: functional, organism-based
Staphylococcus aureus [21] = assay: Antimicrobial activity against Staphylococcus aureus DSM 1104 assessed as inhibition of microbial growth incubated overnight by serial dilution method; type: functional; conditions: DSM1104

Compound	Activity (Escherichia coli)	Activity (Pseudomonas aeruginosa)	Activity [1]	Activity [2]	Activity (Wickerhamomyces anomalus)	Activity (Rhodotorula glutinis)	Activity [15]	Activity (Candida albicans)	Activity (Mucor hiemalis)	Activity (Staphylococcus aureus [17])	Activity (KB 3-1)	Activity (L929)	further results
CC(=O)[C@H](C)C[C@@H](C)C[C@H](C)C(=O)C1=C(O)/C(=C/c2ccccc2)NC1=O	inactive	inactive	inactive	inactive	inactive	inactive	–	–	–	–	–	–	Activity (Staphylococcus aureus [3]): ~50%; Activity (Staphylococcus aureus [4]): 35%; Activity (Staphylococcus aureus [5]): Active; Activity (Staphylococcus aureus [6]): Active; Activity (Staphylococcus aureus [7]): Active; MIC (Staphylococcus aureus [8]): 0.13 µg/mL; fractional inhibitory concentration index (FICI) (Staphylococcus aureus [9]): 0.126; MIC (Staphylococcus aureus [10]): 0.065 µg/mL; fractional inhibitory concentration index (FICI) (Staphylococcus aureus [11]): 0.158; fold change (FC) (Staphylococcus aureus [12]): 115; fold change (FC) (Staphylococcus aureus [13]): 3; fold change (FC) (Staphylococcus aureus [14]): 3
CC[C@H](C)[C@@H]1O[C@H](c2c(O)c(-c3ccccc3)cn(O)c2=O)[C@@H](C)C[C@@H]1C	inactive	inactive	inactive	inactive	inactive	inactive	inactive	inactive	inactive	–	–	–	Activity (Staphylococcus aureus [16]): inactive
NYSTATIN	–	–	–	–	–	–	–	–	–	–	–	–	MIC (Wickerhamomyces anomalus): 8.3 µg/mL; MIC [15]: 4.2 µg/mL; MIC (Mucor hiemalis): 8.3 µg/mL; MIC (Rhodotorula glutinis): 4.2 µg/mL
C[C@@H](C[C@H](C)C(=O)C1=C(O)/C(=C/c2ccccc2)NC1=O)C[C@](C)(O)[C@@H](O)CO	inactive	inactive	inactive	inactive	inactive	inactive	inactive	inactive	inactive	inactive	Non-Toxic	Non-Toxic	Activity (Bacillus subtilis): inactive
C[C@H](C[C@@H](C)[C@H](C)OC=O)C[C@H](C)C(=O)C1=C(O)/C(=C/c2ccccc2)NC1=O	inactive	inactive	inactive	inactive	inactive	inactive	inactive	inactive	–	–	–	–	Activity (Staphylococcus aureus [18]): 50%; Activity (Staphylococcus aureus [4]): 35%
CC[C@H](C)C[C@@H](C)C[C@H](C)C(=O)C1=C(O)/C(=C/c2ccccc2)NC1=O	inactive	inactive	inactive	–	inactive	inactive	inactive	inactive	–	inactive	–	–	Activity (Staphylococcus aureus [19]): Active
C[C@@H](C[C@H](C)C(=O)C1=C(O)/C(=C/c2ccccc2)NC1=O)C[C@](C)(O)C(=O)CO	inactive	inactive	inactive	inactive	inactive	inactive	inactive	inactive	inactive	inactive	Non-Toxic	Non-Toxic	Activity (Bacillus subtilis): inactive
C[C@H](C[C@@H](C)[C@H](C)O)C[C@H](C)C(=O)C1=C(O)/C(=C/c2ccccc2)NC1=O	inactive	inactive	inactive	inactive	inactive	inactive	inactive	inactive	inactive	–	Non-Toxic	Non-Toxic	–
CCC(/C=C(C)/C=C/C(=O)c1c(O)c(-c2ccc(O)cc2)cn(O)c1=O)CO (centres undefined)	–	–	–	–	–	–	–	–	–	–	–	–	Activity (Staphylococcus aureus [20]): inactive
GENTAMICIN	–	–	–	–	–	–	–	–	–	–	–	–	MIC (Escherichia coli): 1.7 µg/mL; MIC (Pseudomonas aeruginosa): 0.21 µg/mL; MIC (Staphylococcus aureus [17]): 0.4 µg/mL; MIC (Staphylococcus aureus [21]): 15.7 µg/mL; MIC [1]: 0.42 µg/mL
